In experiment [1] the test system is human hepatocellular carcinoma BEL-7402 cell lines. Kind of experiment: Growth of tumors of BALB/c nude mice inoculated with BEL-7402 cells in vivo. To be noted: 20 mg/kg by gavage, 3 weeks. The procedure:
First, 1×10^6 cells of human hepatocellular carcinoma BEL-7402 cell lines were injected subcutaneously (sc) into the forelimbs of BALB/c male nude mice, and the mice with tumor were killed after the tumor was formed, the skin of the mice was cut off, and the complete tumor tissue was separated and removed, and then immersed into physiological saline and cut into pieces with diameter of 2 mm. The tumor tissue pieces were implanted subcutaneously into the forelimbs of nude mice in another group for drug experiments. The nude mice with tumor were randomly divided equally into an experimental group and control group, with 10 mice in each group. […] Experimental data, such as tumor size (i.e., long diameter a and short diameter b), experimental animal weight (g), etc., were recorded regularly, and photographs were taken. Measurement result was recorded every time, and the tumor volume and the ratio of tumor volume to tumor weight were calculated for each animal based on the measurement results.
Formula for calculating the tumor volume is: v=a×b2/2 (a represents the long diameter of the tumor and b represents the short diameter of the tumor, which are in unit of mm; and V is calculated in unit of mm^3). […]

Experiment [2] has as its system vessel network model formed by culturing adult stem cells and vascular endothlial cells together. The experiment can be described thus: Formation of vessel network in vitro (adult stem cells co-cultured with vascular endothlial cells). The format is cell-based, human. The following applies: for lengths of the formed vessel networks (Total Tube Length, TL): co-culture six days. Here is the method: First, we constructed a vessel network model formed by culturing adult stem cells and vascular endothlial cells together. Adult stem cells have the function of differentiating into pericytes, and can secrete cytokines required for angiogenesis to promote the formation of new vessels. The isolated and cultured adult stem cells were cultured using EGM medium for 3-6 generations to be used. The isolated and cultured human endothlial cells were derived from the cord blood of healthy infants (38-40 weeks), in which monocytes were removed by gradient centrifugation, and the cells were cultured in EGM medium to obtain primary vascular endothlial cells, and 4-8 generations were applied after passage. The adult stem cells were implanted into a cell culture dish, maintaining cell density of 6×10^6/cm^2, and the vascular endothlial cells were implanted on the trophoblast cells of the adult stem cells after the adult stem cells were incubated at 37° C., 5% CO2 for 3 hours, and the cell density of the vascular endothlial cells reached 1×10^6/cm^2. The two kinds of cells were co-cultured for six days, then the formation of tubular networks was observed, and the new vessel networks were labeled through CD31 fluorescence staining and horseradish peroxidase staining.
Different doses of 3,4-diacetyl phenethyl caffeate (prepared according to conventional chemical method by the Laboratory of Peking University Health Science center) were co-cultured with the in vitro vessel network system. […] However, there is no significant difference among the total numbers of ECs of CD31+ in respective groups. The total numbers of ECs in the control group, DMSO group, 5 μm group, 10 μm group, 20 μm group, 50 μm group and 100 μm group are 7.52±1.24/mm^2, 8.66±1.31/mm^2, 8.87±1.59/mm^2, 6.0±1.72/mm^2, 6.22±1.42/mm^2, […], 8.33±0.79/mm^2 respectively, and there is no significant difference among respective groups through analysis.

Experiment [3] relates to angiogenesis model by culturing stromal cells and vascular endothlial cells (ECs) together. The experiment can be described thus: Tumor angiogenesis mediated by pericytes (stromal cells co-cultured with vascular endothlial cells). To be noted: for Length of the formed vessel network (Total Tube Length, TL, n = 8): control 436; for effect on tumor angiogenesis mediated by pericytes: concentrations of 50-100 μM, result in words. The format is cell-based. Here is the method: We constructed an angiogenesis model by culturing stromal cells and vascular endothlial cells (ECs) together. Stromal cells and endothlial cells were graciously provided by Vascular Biology Medical Center of Medical School of the State University in Indiana. The stromal cells were implanted into a cell culture dish, maintaining cell density of 6×10^6/cm^2, and ECs were implanted on the trophoblast cells of the stromal cells after the stromal cells were incubated in the EBM-2/5% FBS culture medium for 3 hours, with cell density of ECs reaching 1×10^6/cm^2. The two kinds of cells were co-cultured in EBM-2/5% FBS culture medium for six days, then the formation of tubular vessels was observed, and EC vessels were labeled through CD31 fluorescence staining and horseradish peroxidase staining.
Then, the inhibition of compounds phenethyl caffeate and 3,4-diacetyl phenethyl caffeate with concentrations of 50-100 μM on tumor angiogenesis mediated by pericytes was studied.

The values below come from US9532967B2, “Use of phenethyl caffeate derivatives in the preparation of a medicament against tumor angiogenesis” (priority 2010, dated 2017).

As to `CC(=O)Oc1ccc(/C=C/C(=O)OCCc2ccccc2)cc1OC(C)=O` [3,4-diacetyl phenethyl caffeate], in experiment [1] (result in words), the “effect on the growth of tumors” value was “inhibitory effect”. For the same compound, the “average tumor volume of the mice” value in experiment [1] (six days every week, FIG. 2) is recorded as “maintained at the original level, with no significant changes”. For the same compound, the “numbers of branchs (NB) of the vessels” value is listed as 0.13±0.026 /mm^2 in experiment [2] (50 μM group); 6.12±0.48 /mm^2 in experiment [2] (5 μm group); 1.55±0.17 /mm^2 in experiment [2] (10 μm group); 0.50±0.063 /mm^2 in experiment [2] (20 μm group); 0.04±0.001 /mm^2 in experiment [2] (100 μm group). The “lengths of the formed vessel networks (Total Tube Length, TL)” value in experiment [2] (50 μM group) was determined as 0.084±0.032 mm/mm^2; in experiment [2] (5 μm group) it was 2.802±0.212 mm/mm^2; in experiment [2] (10 μm group) it was 0.874±0.117 mm/mm^2; in experiment [2] (20 μm group), 0.337±0.89 mm/mm^2; in experiment [2] (100 μm group), 0.0054±0.002 mm/mm^2. The “total numbers of ECs (CD31+)” value is on record as 8.87±1.59 /mm^2 in experiment [2] (5 μm group), 6.0±1.72 /mm^2 in experiment [2] (10 μm group), 6.22±1.42 /mm^2 in experiment [2] (20 μm group) and 8.33±0.79 /mm^2 in experiment [2] (100 μm group). The “effect on the formation of vessel networks in vitro” value in experiment [2] (result in words) is on record as “inhibitory effect”. In addition, the entries for the “Length of the formed vessel network (Total Tube Length, TL, n = 8)” value in experiment [3] (50 μM) and in experiment [3] (100 μM) were 114 ± 20 and 20 ± 11, respectively. For the same compound, the “effect on tumor angiogenesis mediated by pericytes” value in experiment [3] is reported as “inhibitory effect”; in experiment [3] (listed as diacetyl phenethyl caffeate), “significant inhibitory effect”.

For the compound `O=C(/C=C/c1ccc(O)c(O)c1)OCCc1ccccc1` [phenethyl caffeate], the figures for the “Length of the formed vessel network (Total Tube Length, TL, n = 8)” value in experiment [3] (50 μM) and in experiment [3] (100 μM) were 332 ± 24 and 314 ± 27, respectively. In experiment [3], the “effect on tumor angiogenesis mediated by pericytes” value is listed as “no inhibitory effect”.
